Patent US11173151B2, “Substituted triazole derivatives and uses thereof” (BAYER AKTIENGESELLSCHAFT, priority 2017, dated 2021)

Tests used:
human V1a receptor = biological target: T1, human V1a receptor (Homo sapiens, UniProt P37288); test: Cellular in vitro assay for determining vasopressin receptor activity, V1a receptor cell line (CHO, aequorin luminescence); type: cell-based; conditions: for IC50: CHO cell line transfected with human V1a receptor, [Arg]-vasopressin at EC50 concentration, read-out: IC50 hV1a; for ratio IC50 hV2/hV1a: selectivity ratio IC50 hV2 / IC50 hV1a
T1 construct: expressed in transfected cells; host or cells: CHO K1 (ATCC), also stably transfected with a modified aequorin
T1 sequence (P37288 whole entry): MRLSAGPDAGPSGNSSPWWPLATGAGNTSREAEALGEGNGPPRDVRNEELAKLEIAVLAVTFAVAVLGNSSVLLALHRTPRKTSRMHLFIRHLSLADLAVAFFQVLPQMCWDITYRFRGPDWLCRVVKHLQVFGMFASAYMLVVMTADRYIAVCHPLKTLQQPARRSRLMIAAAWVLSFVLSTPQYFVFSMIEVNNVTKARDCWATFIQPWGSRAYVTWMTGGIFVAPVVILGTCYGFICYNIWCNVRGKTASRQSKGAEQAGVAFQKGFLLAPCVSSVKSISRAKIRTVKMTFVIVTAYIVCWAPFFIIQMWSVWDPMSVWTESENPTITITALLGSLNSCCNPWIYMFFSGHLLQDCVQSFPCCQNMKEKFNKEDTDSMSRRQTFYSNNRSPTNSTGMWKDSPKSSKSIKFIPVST
Procedure, shortened: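 Luminescence from reconstituted aequorin, reporting intracellular calcium release, was measured immediately after adding [Arg]-vasopressin at EC50 concentration to CHO K1 cells pretreated 10 minutes with graded compound concentrations. Inhibition gave IC50 values.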

human V2 receptor = biological target: T2, human V2 receptor (Homo sapiens, UniProt P30518); test: Cellular in vitro assay for determining vasopressin receptor activity, V2 receptor cell line (CHO, CRE-luciferase); type: cell-based; conditions: CHO cell line transfected with human V2 receptor; [Arg8]-vasopressin at EC50 concentration; read-out: IC50 hV2
T2 construct: expressed in transfected cells; host or cells: CHO K1 (ATCC) expressing firefly luciferase under a CRE-responsive promoter
T2 sequence (P30518 whole entry): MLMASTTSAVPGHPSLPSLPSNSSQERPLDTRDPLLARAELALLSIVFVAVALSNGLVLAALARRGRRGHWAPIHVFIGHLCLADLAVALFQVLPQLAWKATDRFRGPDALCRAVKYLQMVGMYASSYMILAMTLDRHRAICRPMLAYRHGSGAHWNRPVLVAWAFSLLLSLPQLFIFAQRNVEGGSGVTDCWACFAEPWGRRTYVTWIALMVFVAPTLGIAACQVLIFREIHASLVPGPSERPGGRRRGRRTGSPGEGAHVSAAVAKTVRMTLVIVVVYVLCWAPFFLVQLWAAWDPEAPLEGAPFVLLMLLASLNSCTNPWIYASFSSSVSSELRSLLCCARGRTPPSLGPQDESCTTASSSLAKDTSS

| IC50 (human V1a receptor) | ratio IC50 hV2/hV1a (human V1a receptor) | IC50 (human V2 receptor) | SMILES |
| --- | --- | --- | --- |
| 58.5 nM | 19.7 | 1150 nM | O=C(NC1CC1(F)F)c1cccc(C(F)(F)F)c1-n1cnc(Cn2nc(-c3ccc(Cl)cc3)n(C[C@H](O)C(F)(F)F)c2=O)n1 (mixture of isomers) [Example 420, 2-[3-({3-(4-Chlorophenyl)-5-oxo-4-[(2S)-3,3,3-trifluoro-2-hydroxypropyl]-4,5-dihydro-1H-1,2,4-triazol-1-yl}methyl)-1H-1,2,4-triazol-1-yl]-N-[2,2-difluorocyclopropyl]-3-(trifluoromethyl)benzamide] |
| 51 nM | 27.5 | 1400 nM | NC(CNC(=O)c1ncccc1-n1cnc(Cn2nc(-c3ccc(Cl)cc3)n(C[C@H](O)C(F)(F)F)c2=O)n1)C(F)(F)F (mixture of isomers) [Example 429, N-[(2R)-2-Amino-3,3,3-trifluoropropyl]-3-[3-({3-(4-chlorophenyl)-5-oxo-4-[(2S)-3,3,3-trifluoro-2-hydroxypropyl]-4,5-dihydro-1H-1,2,4-triazol-1-yl}methyl)-1H-1,2,4-triazol-1-yl]pyridine-2-carboxamide] |
| 44.5 nM | 16.0 | 710 nM | O=C(NCC(O)C(F)(F)F)c1ncccc1-n1cnc(Cn2nc(-c3ccc(Cl)cc3)n(C[C@H](O)C(F)(F)F)c2=O)n1 (mixture of isomers) [Example 430, 3-[3-({3-(4-Chlorophenyl)-5-oxo-4-[(2S)-3,3,3-trifluoro-2-hydroxypropyl]-4,5-dihydro-1H-1,2,4-triazol-1-yl}methyl)-1H-1,2,4-triazol-1-yl]-N-[3,3,3-trifluoro-2-hydroxypropyl]pyridine-2-carboxamide] |
| 25 nM | 33.0 | 825 nM | O=C(NC1CC1(F)F)c1ncccc1-n1cnc(Cn2nc(-c3ccc(Cl)cc3)n(C[C@H](O)C(F)(F)F)c2=O)n1 (mixture of isomers) [Example 436, 3-[3-({3-(4-Chlorophenyl)-5-oxo-4-[(2S)-3,3,3-trifluoro-2-hydroxypropyl]-4,5-dihydro-1H-1,2,4-triazol-1-yl}methyl)-1H-1,2,4-triazol-1-yl]-N-[2,2-difluorocyclopropyl]pyridine-2-carboxamide] |
| 100 nM | 45.5 | 4550 nM | CC1CN(C(=O)c2ncccc2-n2cnc(Cn3nc(-c4ccc(Cl)cc4)n(C[C@H](O)C(F)(F)F)c3=O)n2)CCO1 (mixture of isomers) [Example 440, 5-(4-Chlorophenyl)-2-{[1-(2-{[2-methylmorpholin-4-yl]carbonyl}pyridin-3-yl)-1H-1,2,4-triazol-3-yl]methyl}-4-[(2S)-3,3,3-trifluoro-2-hydroxypropyl]-2,4-dihydro-3H-1,2,4-triazol-3-one] |
| 175 nM | 34.6 | 6050 nM | NC(=O)C1CCCN1C(=O)c1ncccc1-n1cnc(Cn2nc(-c3ccc(Cl)cc3)n(C[C@H](O)C(F)(F)F)c2=O)n1 (mixture of isomers) [Example 441, 1-({3-[3-({3-(4-Chlorophenyl)-5-oxo-4-[(2S)-3,3,3-trifluoro-2-hydroxypropyl]-4,5-dihydro-1H-1,2,4-triazol-1-yl}methyl)-1H-1,2,4-triazol-1-yl]pyridin-2-yl}carbonyl)-prolinamide] |
| 190 nM | 24.5 | 4650 nM | O=C(c1ncccc1-n1cnc(Cn2nc(-c3ccc(Cl)cc3)n(C[C@H](O)C(F)(F)F)c2=O)n1)N1CCC(O)(C(F)(F)F)C1 (mixture of isomers) [Example 442, 5-(4-Chlorophenyl)-2-{[1-(2-{[3-hydroxy-3-(trifluoromethyl)pyrrolidin-1-yl]carbonyl}pyridin-3-yl)-1H-1,2,4-triazol-3-yl]methyl}-4-[(2S)-3,3,3-trifluoro-2-hydroxypropyl]-2,4-dihydro-3H-1,2,4-triazol-3-one] |
